The subject of one assay is mast cells. Nature of the assay: Early and delayed mast cell responses induced by FcεRI aggregation. Type of assay: cell-based. How it is done: Binding of Btk and Vav with SLP-76 is critical for regulating PLC-γ activity on the membrane, calcium mobilisation and granule exocytosis^27, 28.
(§1) • 1) Chemical products and antibodies. A chemical bank of 3000 molecules (a varied subset) was acquired from ChemBridge, Inc. (San Diego, Calif.). Stocks of solutions of small molecules were prepared at a rate of 10 mM in DMSO (dimethylsulphoxide), except for C-13 (methyl 2-{5-[(3-benzyl-4-oxo-2-thioxo-1,3-thiazolidin-5-ylidene)methyl]-2-furyl}benzoate, ChemBridge ID No. 6197026) prepared in DMF (dimethylformamide). Unless specified otherwise, all the reagents were supplied by Sigma. Dinitrophenyl (DNP) hapten was acquired from Calbiochem. […] The binding of G4G11 with Syk was assessed by adding the 9E10 monoclonal antibody conjugated with HRP detecting the amino acid sequence EQKLISEEDLN of human c-myc protein located at the C-terminal end of the scFv fragment. To generate Syk mutants, targeted mutagenesis was used on GST:Syk 6-242 protein and the binding of G4G11 with the mutants was assessed in the presence of 5 μM of C-13. • 3) Cells, culture conditions and functional tests. […] The level of β-hexosaminidase released was measured 10 min later and the TNF-α titration was performed by means of a cytotoxicity test on L929 cells as described previously^10, 3 hours after stimulation. […]

The subject of a further assay is p38 and JNK. Put plainly: MAP kinase activation: p38 and JNK phosphorylation levels. Type of assay: cell-based. The conditions noted are these: high C-13 concentration. How it is done: The association of SLP-76 with Vav and/or Nck plays a role in optimal MAP kinase activation in mast cells^27.
as §1, with “Calbiochem. Sepharose GammaBind G and all the secondary antibodies were supplied by GE Health Amersham Biosciences.” for “Calbiochem.”

Here are results for 1 compound from patent US9504676B2, “Molecules inhibiting a metabolic pathway involving the Syk protein tyrosine kinase and method for identifying said molecules” (CENTRE NATIONAL DE LA RECHERCHE SCIENTIFIQUE, priority 2008, dated 2016).

Like-named read-outs stand apart in the source and are kept apart here.

On to `COC(=O)c1ccccc1-c1ccc(/C=C2/SC(=S)N(Cc3ccccc3)C2=O)o1` [Molecule C-13, methyl 2-{5-[(3-benzyl-4-oxo-2-thioxo-1,3-thiazolidin-5-ylidene)methyl]-2-furyl}benzoate], for which the 50% inhibitory concentration (IC50) (in general, the concentration that inhibits the measured activity by half) was approximately 2000 nM with mast cells (read-out: estimated IC50, delayed mast cell response (TNF-α secretion)) and approximately 2000 nM in the assay on mast cells (read-out: estimated IC50, early mast cell response (β-hexosaminidase release)). Besides, the “phosphorylation levels of p38 and JNK” value in the assay on p38 and JNK is on record as “remain normal”.
